From ChEMBL document CHEMBL1201862, “PubChem BioAssay data set” (2004) come the findings set out here.

Some test systems named below: OVCAR-3; 786-0; HT-29; UACC-62; OVCAR-4; HOP-62; SR; MCF7; UACC-257; IGROV-1; SN12C; SNB-19; OVCAR-5; SK-MEL-28; U-251; MOLT-4; HCT-15; SF-295; A549; HL-60.
Test in all cases: NCI tumour cell line growth inhibition, 48 h

Molecules are shown by their SMILES.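 These data come from cells grown in 96-well plates and exposed to compound for 48 hours at five concentrations. GI50 marks 50% less growth.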 The source made the active and inactive calls. Cut-off read from the data, not from the text of the source: active = GI50 up to about 1.1 µM and inactive = higher. A value given as a limit tells only on which side of the number the result lay.

Regarding `CC(C)C(C/C=C1\CC(CO)(COC(=O)C(C)(C)C)OC1=O)C(C)C` (stereo unspecified), the GI50 with OVCAR-3 is 12.6 µM (inactive); in the assay on 786-0, 2.65 µM (inactive); in the assay on HT-29, 19.3 µM (inactive); in the assay on UACC-62, 15.2 µM (inactive); in the assay with OVCAR-4, 16.3 µM (inactive); in the assay with HOP-62, 3.11 µM (inactive). Further, the GI50 in the assay with SR was 11.5 µM (inactive); in the assay with MCF7, 20.7 µM (inactive); in the assay with UACC-257, 16 µM (inactive); in the assay with IGROV-1 it was 14.3 µM (inactive); with SN12C, 5.69 µM (inactive); in the assay with SNB-19, 13 µM (inactive). Also, the GI50 in the assay on OVCAR-5 is 10.5 µM (inactive); with SK-MEL-28 it was 13.2 µM (inactive); in the assay on U-251, 10.7 µM (inactive); with MOLT-4, 0.581 µM (active); in the assay with HCT-15, 13.4 µM; in the assay with SF-295 it was 4.06 µM (inactive). Besides, in the assay with A549, the GI50 was 4.42 µM (inactive).
Turning to `CCOC(=O)c1nc2ccccc2nc1NCc1cc(OC)c(OC)c(OC)c1`, the GI50 with OVCAR-3 is 75.5 µM (inactive); in the assay with 786-0, 72.9 µM (inactive); in the assay with HT-29 it was 40.5 µM (inactive); with HL-60, 33.3 µM (inactive); in the assay on UACC-62, 36.8 µM (inactive); in the assay on OVCAR-4, 29.6 µM (inactive). In addition, the GI50 with HOP-62 is 55.1 µM (inactive); in the assay on SR, 37.8 µM (inactive); in the assay on MCF7, 35.6 µM (inactive); with UACC-257, 75 µM (inactive); in the assay on IGROV-1 it was 53.1 µM (inactive); in the assay with SN12C, 27.4 µM (inactive). The GI50 with OVCAR-5 was > 100 µM (inactive); in the assay on SK-MEL-28, 58.3 µM (inactive); in the assay on U-251, 42.1 µM (inactive); with MOLT-4, 27.2 µM (inactive); in the assay with HCT-15, 30.3 µM; in the assay with SF-295, 54.1 µM (inactive). Further, the GI50 in the assay with A549 is 37.8 µM (inactive).
As for `Nc1ncc(CN2CCOCC2)c(-c2ccccc2O)n1`, the GI50 in the assay on OVCAR-3, in the assay on 786-0, with HT-29, in the assay with HL-60, in the assay with UACC-62 and with OVCAR-4 was > 100 µM (inactive) each time. Besides, the GI50 in the assay on HOP-62, in the assay on SR, in the assay with MCF7, in the assay with UACC-257, with IGROV-1 and in the assay on SN12C was > 100 µM (inactive) throughout. In addition, the GI50 is > 100 µM (inactive) in the assay with OVCAR-5; > 100 µM (inactive) with SK-MEL-28; > 100 µM (inactive) in the assay with U-251; > 100 µM (inactive) in the assay on MOLT-4; over 100 µM with HCT-15; > 100 µM (inactive) in the assay with SF-295. In the assay on A549, the GI50 was > 100 µM (inactive).
Turning to `CN1C(=O)N(C)C2(CCN(CCCCCCF)CC2)C1=O`, the GI50 in the assay on OVCAR-3, in the assay with 786-0, in the assay with HT-29, in the assay with HL-60, in the assay on UACC-62 and in the assay with HOP-62 was > 100 µM (inactive) each time. Moreover, the GI50 in the assay on SR, in the assay with MCF7, with UACC-257, in the assay with IGROV-1, in the assay on SN12C and in the assay on SNB-19 was > 100 µM (inactive) throughout. For the same compound, the GI50 is > 100 µM (inactive) with OVCAR-5; > 100 µM (inactive) in the assay with SK-MEL-28; > 100 µM (inactive) in the assay with U-251; > 10 µM (inactive) with MOLT-4; over 100 µM in the assay with HCT-15; > 100 µM (inactive) with SF-295. The GI50 with A549 is > 100 µM (inactive).
With `CCOC(=O)c1cn2c(n1)sc1cc(F)ccc12`, the GI50 in the assay with OVCAR-3 is > 100 µM (inactive); in the assay on 786-0, 52.8 µM (inactive); with HT-29, 82.8 µM (inactive); in the assay on UACC-62 it was > 100 µM (inactive); with OVCAR-4, > 100 µM (inactive); in the assay with HOP-62 it was 29.5 µM (inactive). Further, the GI50 with SR is 16.1 µM (inactive); with MCF7, 46.9 µM (inactive); with UACC-257, > 100 µM (inactive); in the assay on IGROV-1, > 100 µM (inactive); with SN12C it was > 100 µM (inactive); in the assay on SNB-19, > 100 µM (inactive). Also, the GI50 with OVCAR-5 was 25.2 µM (inactive); with SK-MEL-28, > 100 µM (inactive); with U-251, 77.6 µM (inactive); in the assay on MOLT-4 it was > 100 µM (inactive); with HCT-15, over 100 µM; with SF-295, 74.8 µM (inactive). In the assay with A549, the GI50 is > 100 µM (inactive).
Regarding `O=C1c2ccccc2C(=O)N1CC(O)COc1cccc2ccccc12` (stereo unspecified), the GI50 in the assay on OVCAR-3, in the assay on HT-29, with HL-60, with UACC-62, in the assay with HOP-62 and with SR was > 100 µM (inactive) each time. The GI50 in the assay on MCF7, with UACC-257, in the assay on IGROV-1, in the assay with SNB-19, in the assay on OVCAR-5 and in the assay with SK-MEL-28 was > 100 µM (inactive) throughout. For the same compound, the GI50 with U-251 was > 100 µM (inactive); with MOLT-4, > 100 µM (inactive); in the assay on HCT-15 it was over 100 µM; in the assay with SF-295, 98.2 µM (inactive); with A549, > 100 µM (inactive).
As to `C=CC1(C)CCC2C(=CCC3C(C)(COC4OC(C(=O)O)C(O)C(O)C4O)C(O)CCC23C)C1.C=CC1(C)CCC2C(=CCC3C2(C)CC(O)C(O)C3(C)COC2OC(C(=O)O)C(O)C(O)C2O)C1` (stereo unspecified), the GI50 with OVCAR-3, in the assay with 786-0, in the assay with HT-29, in the assay on UACC-62, in the assay on OVCAR-4 and with HOP-62 was > 100 µM (inactive) throughout. For the same compound, the GI50 in the assay on SR was 44.6 µM (inactive); in the assay on MCF7, 71 µM (inactive); with UACC-257 it was 83.4 µM (inactive); in the assay with IGROV-1, > 100 µM (inactive); in the assay on SN12C, > 100 µM (inactive); in the assay on SNB-19 it was > 100 µM (inactive). Further, the GI50 in the assay with OVCAR-5 was > 100 µM (inactive); in the assay on SK-MEL-28 it was > 100 µM (inactive); in the assay on U-251 it was > 100 µM (inactive); with MOLT-4 it was 13.3 µM (inactive); in the assay with HCT-15, over 100 µM; in the assay with SF-295, 70.1 µM (inactive). Besides, in the assay on A549, the GI50 was > 100 µM (inactive).
With `S=c1nc2[nH]c3ccc(Br)cc3c2n[nH]1`, the GI50 in the assay with OVCAR-3 was 41 µM (inactive); in the assay on 786-0 it was 35.2 µM (inactive); in the assay on HT-29 it was 35 µM (inactive); with HL-60 it was 12 µM (inactive); in the assay on UACC-62 it was 30.5 µM (inactive); in the assay on OVCAR-4, 25 µM (inactive). The GI50 with SR is 19 µM (inactive); in the assay on MCF7, 19 µM (inactive); in the assay with UACC-257 it was 62.5 µM (inactive); with IGROV-1 it was 19.3 µM (inactive); in the assay on SN12C, 66.1 µM (inactive); in the assay on SNB-19 it was > 100 µM (inactive). The GI50 in the assay with OVCAR-5 was > 100 µM (inactive); in the assay on SK-MEL-28, > 100 µM (inactive); in the assay on U-251 it was 53.2 µM (inactive); in the assay on MOLT-4, 30.3 µM (inactive); in the assay with HCT-15, 22.1 µM; in the assay with A549 it was 55 µM (inactive).
For the compound `Cc1nn(C(=O)Cc2ccccc2)c2c1C(c1ccc(Cl)cc1)SC(=N)N2` (stereo unspecified), the GI50 in the assay with 786-0, in the assay with HT-29, in the assay with HL-60, in the assay on UACC-62, in the assay with HOP-62 and in the assay on SR was > 100 µM (inactive) in each case. Also, the GI50 with MCF7, with UACC-257, with IGROV-1, in the assay on SN12C, in the assay on SK-MEL-28 and with MOLT-4 was > 100 µM (inactive) in each case. For the same compound, the results for the GI50 in the assay on HCT-15, in the assay with SF-295 and with A549 were over 100 µM, > 100 µM (inactive) and > 100 µM (inactive), respectively.
In the case of `CC(=O)OCC1=C(C(=O)O)N2C(=O)C(NC(=O)CSc3ccncc3)C2SC1` (stereo unspecified), the GI50 with OVCAR-3, in the assay with 786-0, in the assay on HT-29, with HL-60, with UACC-62 and in the assay with HOP-62 was > 100 µM (inactive) each time. For the same compound, the GI50 with SR, in the assay on MCF7, in the assay with UACC-257, in the assay with IGROV-1, in the assay on SN12C and with SNB-19 was > 100 µM (inactive) in each case. Moreover, the GI50 in the assay on OVCAR-5 was > 100 µM (inactive); in the assay on SK-MEL-28 it was > 100 µM (inactive); in the assay on U-251, > 100 µM (inactive); with MOLT-4, > 100 µM (inactive); in the assay on HCT-15, over 100 µM; with SF-295 it was > 100 µM (inactive). In the assay with A549, the GI50 is > 100 µM (inactive).
Regarding `N[C@H](C(=O)O)[C@@H]1CC(Cl)=NO1` [ACIVICIN], the GI50 in the assay on OVCAR-3 was 2.17 µM (inactive); with 786-0, 13.8 µM (inactive); with HT-29 it was 0.787 µM (active); in the assay with HL-60 it was 3.44 µM (inactive); with UACC-62 it was 2.79 µM (inactive); with OVCAR-4, 14.6 µM (inactive). Further, the GI50 is 1.42 µM (inactive) in the assay on HOP-62; 0.74 µM (active) with SR; 0.676 µM (active) with MCF7; 4.8 µM (inactive) with UACC-257; 0.698 µM (active) in the assay with IGROV-1; 3.5 µM (inactive) with SN12C. The GI50 in the assay on OVCAR-5 was 7.71 µM (inactive); in the assay with SK-MEL-28, 4.4 µM (inactive); in the assay with U-251 it was 2.21 µM (inactive); in the assay on MOLT-4, 2.14 µM (inactive); in the assay on HCT-15 it was 0.738 µM; with A549, 0.916 µM (active).
